Measurements reported in patent publication US12121514B2, “Nonselective metabotropic glutamate receptor activators for treatment of attention deficit disorder and 22Q syndrome” (THE CHILDREN'S HOSPITAL OF PHILADELPHIA, priority 2015, dated 2024).

How the values were obtained:
Type in all cases: in vivo, human
[1] = system: adolescent subjects with ADHD and at least one genetic alteration in an mGluR network gene; experiment: BRIEF scale anxiety/mood items (parent), Phase Ib trial of NFC-1; conditions: all questions, all 30 subjects; week 5; 154 at enrollment
[2] = system: ADHD subjects with anxiety; experiment: Vanderbilt anxiety items 41, 42 and 47, Phase Ib trial of NFC-1; conditions: two subjects with scores of 3 on 2 of the 3 items at enrollment; week 5
Source text: (§1) The Vanderbilt Rating Scale is a measure that can be completed by parents or teachers (separate forms, see Vanderbilt Rating Scale Parents and Vanderbilt Rating Scale Teachers). The Vanderbilt scale rates the child's behavior on items such as attention, finishing tasks, hyperactivity, difficulty waiting, and measures of conduct or oppositional defiant disorders—as well as measures of overall school performance and interactions with others. The first 18 items on the Vanderbilt scale correspond to those of the ADHD Rating Scale IV above while the Vanderbilt scale also includes items 19-47 related to other mental disorders including ODD (items 19-26), conduct disorder (items 27-40), anxiety (items 41, 42, and 47), and depression (items 43-46). Each of the behavioral assessment items on the Vanderbilt Scale are rated 0, 1, 2, or 3, with 0=never occurring; 1=occasionally, 2=often, and 3=very often. Thus, the ADHD Rating Scale IV, ADHD Rating Scale V, and items 1-18 of the Vanderbilt Rating Scale are equivalent scales, while additional items on the Vanderbilt Scale assess co-morbid phenotypes and disorders.
(§2) Two subjects had maximum scores of 3 on 2 of the 3 Vanderbilt items 41, 42, and 47 that are related to anxiety at enrollment. […] One of those subjects also scored 3 on 3 of the 4 Vanderbilt items related to depression (items 43-46) at enrollment and scored 3 on all 4 items at week 1.

[3] = system: ADHD subject with depression; experiment: Vanderbilt depression items 43-46, Phase Ib trial of NFC-1; conditions: one subject scoring 3 on all 4 items at week 1; week 5
Source text: as §1, §2

[4] = system: subject with ADHD, ODD and conduct disorder (CD); experiment: Vanderbilt CD score (items 27-40), Phase Ib trial of NFC-1; conditions: Subject 130
Source text: as §1, with “[…] disorders-as” for “defiant disorders—as”, “disorders. One subject screening positive for ODD (no. 130) also screened positive for conduct disorder (CD), based on scores of 2 or 3 for 3 out of the […] behaviors assessed by items 27-40 of the Vanderbilt Scale at enrollment and again at week 1. […]” for “disorders.”

SMILES: O=C1CC[C@H](C(=O)N2CCCCC2)N1 [NFC-1, fasoracetam monohydrate]
- total BRIEF "often" score, anxiety/mood items [1]: 77
- scores on Vanderbilt anxiety items 41, 42 and 47 [2]: scored 3 on all 3 items
- scores on Vanderbilt depression items 43-46 [3]: scored either 1 or 2 on all 4 items
- improvement in Vanderbilt CD score ([4]; week 1 to week 5): 4 points
- Vanderbilt CD score ([4]; week 5, out of 16, 16/16 at week 1): 12
